Assays:
[1] = system: MOLT-4; assay: NCI human cancer cell line growth inhibition: MOLT-4; assay type: cell-based; conditions: MOLT-4, Leukemia
[2] = system: EKVX; assay: NCI human cancer cell line growth inhibition: EKVX; assay type: cell-based; conditions: NSC Lung
[3] = system: HOP-92; assay: NCI human cancer cell line growth inhibition: HOP-92; assay type: cell-based; conditions: HOP-92, NSC Lung
[4] = system: COLO 205; assay: NCI human cancer cell line growth inhibition: COLO 205; assay type: cell-based; conditions: COLO 205, Colon
[5] = system: HCC-2998; assay: NCI human cancer cell line growth inhibition: HCC-2998; assay type: cell-based; conditions: HCC-2998, Colon
[6] = system: HCT-116; assay: NCI human cancer cell line growth inhibition: HCT-116; assay type: cell-based; conditions: HCT-116, Colon
[7] = system: HT29; assay: NCI human cancer cell line growth inhibition: HT29; assay type: cell-based; conditions: HT29, Colon
[8] = system: KM12; assay: NCI human cancer cell line growth inhibition: KM12; assay type: cell-based; conditions: KM12, Colon
[9] = system: SW-620; assay: NCI human cancer cell line growth inhibition: SW-620; assay type: cell-based; conditions: SW-620, Colon
[10] = system: SF-268; assay: NCI human cancer cell line growth inhibition: SF-268; assay type: cell-based; conditions: SF-268, CNS
[11] = system: SF-295; assay: NCI human cancer cell line growth inhibition: SF-295; assay type: cell-based; conditions: SF-295, CNS
[12] = system: SF-539; assay: NCI human cancer cell line growth inhibition: SF-539; assay type: cell-based; conditions: SF-539, CNS
[13] = system: SNB-19; assay: NCI human cancer cell line growth inhibition: SNB-19; assay type: cell-based; conditions: SNB-19, CNS
[14] = system: U251; assay: NCI human cancer cell line growth inhibition: U251; assay type: cell-based; conditions: U251, CNS
[15] = system: PC-3; assay: NCI human cancer cell line growth inhibition: PC-3; assay type: cell-based; conditions: PC-3, Prostate
[16] = system: DU-145; assay: NCI human cancer cell line growth inhibition: DU-145; assay type: cell-based; conditions: DU-145, Prostate
[17] = system: SK-MEL-2; assay: NCI human cancer cell line growth inhibition: SK-MEL-2; assay type: cell-based; conditions: SK-MEL-2, Melanoma
[18] = system: SK-MEL-5; assay: NCI human cancer cell line growth inhibition: SK-MEL-5; assay type: cell-based; conditions: SK-MEL-5, Melanoma
[19] = system: UACC-257; assay: NCI human cancer cell line growth inhibition: UACC-257; assay type: cell-based; conditions: UACC-257, Melanoma
[20] = system: UACC-62; assay: NCI human cancer cell line growth inhibition: UACC-62; assay type: cell-based; conditions: UACC-62, Melanoma
[21] = system: OVCAR-3; assay: NCI human cancer cell line growth inhibition: OVCAR-3; assay type: cell-based; conditions: OVCAR-3, Ovarian
[22] = system: OVCAR-5; assay: NCI human cancer cell line growth inhibition: OVCAR-5; assay type: cell-based; conditions: OVCAR-5, Ovarian
[23] = system: OVCAR-8; assay: NCI human cancer cell line growth inhibition: OVCAR-8; assay type: cell-based; conditions: OVCAR-8, Ovarian
[24] = system: ACHN; assay: NCI human cancer cell line growth inhibition: ACHN; assay type: cell-based; conditions: Renal
[25] = system: CAKI-1; assay: NCI human cancer cell line growth inhibition: CAKI-1; assay type: cell-based; conditions: CAKI-1, Renal
[26] = system: TK-10; assay: NCI human cancer cell line growth inhibition: TK-10; assay type: cell-based; conditions: TK-10, Renal
[27] = system: UO-31; assay: NCI human cancer cell line growth inhibition: UO-31; assay type: cell-based; conditions: UO-31, Renal
[28] = system: MCF7; assay: NCI human cancer cell line growth inhibition: MCF7; assay type: cell-based; conditions: MCF7, Breast
[29] = system: NCI/ADR-RES; assay type: cell-based, human; conditions: Homo sapiens, Breast, read-out: Growth inhibition (GI50) (converted)
[30] = system: MDA-MB-231/ATCC; assay: NCI human cancer cell line growth inhibition: MDA-MB-231/ATCC; assay type: cell-based; conditions: Breast
[31] = system: MDA-MB-435; assay: NCI human cancer cell line growth inhibition: MDA-MB-435; assay type: cell-based
[32] = system: T-47D; assay: NCI human cancer cell line growth inhibition: T-47D; assay type: cell-based; conditions: Breast
[33] = system: HS 578T; assay: NCI human cancer cell line growth inhibition: HS 578T; assay type: cell-based; conditions: Breast

SMILES: CCCCCCCC(=O)O[C@H]1/C(=C/C(=O)OC)C[C@H]2C[C@H](CO)OC(=O)C[C@H](O)C[C@@H]3CCCC(CC4CCO[C@H](/C=C/C(C)(C)[C@]1(O)O2)O4)O3 [Formula IIa (702.1)]
- GI50 ([1]; Homo sapiens): < 0.01 µM
- Difference (GI50 desmethyl vs Bryo-1) [1]: −2.50
- more active than bryostatin-1 by [1]: more than 2 orders of magnitude
- GI50 ([2]; Homo sapiens): 2.63 µM
- Difference (GI50 desmethyl vs Bryo-1) [2]: −0.28
- Difference (GI50 desmethyl vs Bryo-1) [3]: 0.63
- GI50 ([3]; Homo sapiens): 21.4 µM
- Difference (GI50 desmethyl vs Bryo-1) [4]: −1.68
- GI50 ([4]; Homo sapiens): 0.0832 µM
- Difference (GI50 desmethyl vs Bryo-1) [5]: −2.24
- more active than bryostatin-1 by [5]: more than 2 orders of magnitude
- GI50 ([5]; Homo sapiens): 0.0288 µM
- Difference (GI50 desmethyl vs Bryo-1) [6]: −0.02
- GI50 ([6]; Homo sapiens): 4.79 µM
- Difference (GI50 desmethyl vs Bryo-1) [7]: −0.25
- GI50 ([7]; Homo sapiens, HT-29): 2.82 µM
- GI50 ([8]; Homo sapiens): 4.57 µM
- Difference (GI50 desmethyl vs Bryo-1) [8]: −0.14
- GI50 ([9]; Homo sapiens): 7.59 µM
- Difference (GI50 desmethyl vs Bryo-1) [9]: 0.38
- GI50 ([10]; Homo sapiens): 10.7 µM
- Difference (GI50 desmethyl vs Bryo-1) [10]: 0.13
- GI50 ([11]; Homo sapiens): 0.891 µM
- Difference (GI50 desmethyl vs Bryo-1) [11]: −0.85
- GI50 ([12]; Homo sapiens): 1.7 µM
- Difference (GI50 desmethyl vs Bryo-1) [12]: −0.77
- GI50 ([13]; Homo sapiens): 6.31 µM
- Difference (GI50 desmethyl vs Bryo-1) [13]: −0.20
- GI50 ([14]; Homo sapiens, U-251): 3.98 µM
- Difference (GI50 desmethyl vs Bryo-1) [14]: −0.30
- GI50 ([15]; Homo sapiens): 2.51 µM
- Difference (GI50 desmethyl vs Bryo-1) [15]: −0.30
- Difference (GI50 desmethyl vs Bryo-1) [16]: −0.02
- GI50 ([16]; Homo sapiens): 9.55 µM
- GI50 ([17]; Homo sapiens): 9.55 µM
- Difference (GI50 desmethyl vs Bryo-1) [17]: 0.18
- GI50 ([18]; Homo sapiens): 0.372 µM
- Difference (GI50 desmethyl vs Bryo-1) [18]: −0.73
- GI50 ([19]; Homo sapiens): 7.41 µM
- Difference (GI50 desmethyl vs Bryo-1) [19]: −0.03
- GI50 ([20]; Homo sapiens): 7.76 µM
- Difference (GI50 desmethyl vs Bryo-1) [20]: 0.19
- GI50 ([21]; Homo sapiens): 14.8 µM
- Difference (GI50 desmethyl vs Bryo-1) [21]: 0.27
- GI50 ([22]; Homo sapiens): 5.25 µM
- Difference (GI50 desmethyl vs Bryo-1) [22]: −0.28
- GI50 ([23]; Homo sapiens): 17 µM
- Difference (GI50 desmethyl vs Bryo-1) [23]: 0.33
- GI50 ([24]; Homo sapiens): 1.15 µM
- Difference (GI50 desmethyl vs Bryo-1) [24]: −0.44
- Difference (GI50 desmethyl vs Bryo-1) [25]: −0.30
- GI50 ([25]; Homo sapiens): 2 µM
- GI50 ([26]; Homo sapiens): 0.0933 µM
- Difference (GI50 desmethyl vs Bryo-1) [26]: −2.03
- more active than bryostatin-1 by [26]: more than 2 orders of magnitude
- GI50 ([27]; Homo sapiens): 14.1 µM
- Difference (GI50 desmethyl vs Bryo-1) [27]: 0.75
- GI50 ([28]; Homo sapiens): 3.98 µM
- Difference (GI50 desmethyl vs Bryo-1) [28]: −0.20
- GI50 [29]: 18.2 µM
- Difference (GI50 desmethyl vs Bryo-1) [30]: −0.49
- GI50 ([30]; Homo sapiens): 2.04 µM
- GI50 ([31]; Homo sapiens, MDA-MB-435, Breast): 0.0219 µM
- more active than bryostatin-1 by ([31]; MDA-MB435 (breast)): more than 2 orders of magnitude
- Difference (GI50 desmethyl vs Bryo-1) ([31]; MDA-MB-435, Breast): −2.56
- Difference (GI50 desmethyl vs Bryo-1) [32]: 0.18
- GI50 ([32]; Homo sapiens, T47D): 9.55 µM
- Difference (GI50 desmethyl vs Bryo-1) [33]: 0.02
- GI50 ([33]; Homo sapiens): 6.61 µM

From patent US7256286B2, “Bryostatin analogues, synthetic methods and uses” (The Board of Trustees of the Leland Stanford Junior …, priority 1999, dated 2007)
